# Target: T1, Recombinant human ASK1 kinase (Homo sapiens, UniProt Q99683)
# T1 construct: purchased Invitrogen Inc
# T1 sequence (Q99683 1-1374): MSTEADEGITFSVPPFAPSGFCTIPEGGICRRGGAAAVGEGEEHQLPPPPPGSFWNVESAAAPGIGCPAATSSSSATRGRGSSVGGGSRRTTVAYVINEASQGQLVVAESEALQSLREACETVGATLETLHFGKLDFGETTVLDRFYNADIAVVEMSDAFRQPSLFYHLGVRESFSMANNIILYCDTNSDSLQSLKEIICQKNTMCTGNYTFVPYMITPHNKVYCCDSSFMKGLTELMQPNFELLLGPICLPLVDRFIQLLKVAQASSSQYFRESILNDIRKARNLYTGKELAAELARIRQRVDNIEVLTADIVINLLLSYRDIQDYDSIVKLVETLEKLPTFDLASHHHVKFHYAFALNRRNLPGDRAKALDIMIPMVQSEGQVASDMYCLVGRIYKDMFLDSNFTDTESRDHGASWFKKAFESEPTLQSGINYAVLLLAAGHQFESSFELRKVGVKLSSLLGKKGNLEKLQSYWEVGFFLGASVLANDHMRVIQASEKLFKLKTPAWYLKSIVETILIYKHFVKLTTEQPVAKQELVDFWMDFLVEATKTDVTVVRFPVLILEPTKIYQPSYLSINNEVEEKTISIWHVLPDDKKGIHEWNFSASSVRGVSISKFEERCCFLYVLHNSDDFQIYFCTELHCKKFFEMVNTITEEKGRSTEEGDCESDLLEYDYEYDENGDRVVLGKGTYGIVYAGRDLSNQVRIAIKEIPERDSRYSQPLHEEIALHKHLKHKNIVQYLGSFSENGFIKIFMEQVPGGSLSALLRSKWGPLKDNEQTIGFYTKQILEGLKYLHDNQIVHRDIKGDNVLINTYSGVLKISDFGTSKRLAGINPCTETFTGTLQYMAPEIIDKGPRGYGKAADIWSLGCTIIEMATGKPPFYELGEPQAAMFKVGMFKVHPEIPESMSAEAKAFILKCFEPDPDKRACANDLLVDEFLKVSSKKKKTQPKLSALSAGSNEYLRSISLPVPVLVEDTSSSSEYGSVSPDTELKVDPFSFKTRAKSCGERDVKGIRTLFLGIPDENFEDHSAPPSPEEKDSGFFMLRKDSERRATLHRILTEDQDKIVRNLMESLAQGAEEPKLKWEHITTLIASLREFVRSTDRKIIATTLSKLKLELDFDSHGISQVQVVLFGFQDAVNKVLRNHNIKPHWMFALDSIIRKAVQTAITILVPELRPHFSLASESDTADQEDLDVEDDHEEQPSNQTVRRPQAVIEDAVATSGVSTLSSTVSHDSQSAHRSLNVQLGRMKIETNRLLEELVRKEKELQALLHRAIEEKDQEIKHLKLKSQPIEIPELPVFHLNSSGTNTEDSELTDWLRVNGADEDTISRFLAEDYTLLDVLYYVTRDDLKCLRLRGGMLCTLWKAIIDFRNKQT
# Assay: ASK1 kinase HTRF assay (KinEASE-STK)
# Assay type: biochemical
# Conditions: HTRF detection; 3 nM ASK1 kinase, 1 uM STK-substrate-biotin
# Protocol: Reagents: Recombinant human ASK1 kinase was from Invitrogen Inc. HTRF KinEASE™-STK S3 kit was obtained from Cisbio (Bedford, Mass.). All other reagents were of the highest grade commercially available.
# Assay: The assay measures the phosphorylation level of a biotinylatd peptide substrate by the ASK1 kinase using HTRF detection. ASK1 kinase assay is based on HTRF KinEASE™-STK manual from Cisbio. Test compound, 1 uM STK-substrate-biotin, 3 nM of ASK1 kinase are incubated with 1*Kinase buffer with 5 mM MgCl2 and 1 mM DTT. 250 nM Sa-XL 665(4*) and STK-antibody-Cryptate work solution are added to stop the reaction and phosphorylated peptide substrate is detected using Envision 2104 Multilabeled reader from PerkinElmer. The fluorescence is measured at 615 nm (Cryptate) and 665 nm (XL665) and a ratio of 665 nm/615 nm is calculated for each well. The resulting TR-FRET level (a ratio of 665 nm/615 nm) is proportional to the phosphorylation level of substrate.
row,SMILES,EC50 [nM]
1,CNc1cccc(-c2cnc(-c3cccc(-c4nncn4[C@H](C)CO)n3)o2)c1 [Compound I-062],≤ 50
2,CC(C)n1cnnc1-c1cccc(-c2ncc(-c3cccc(C4=CCCCCC4)c3)o2)n1 [Compound I-138],50 to 500
3,CC(C)n1cnnc1-c1cccc(-c2ncc(-c3cccc(N4CCC(NC(=O)OC(C)(C)C)C4)c3)o2)n1 (stereo not drawn) [Compound I-128],≤ 50
4,Cc1ccc(-c2cnc(-c3cccc(-c4nncn4[C@H](C)CO)n3)o2)c(C)c1 [Compound I-032],≤ 50
5,CC(C)n1cnnc1-c1cccc(-c2ncc(-c3cccc(C4CCOCC4)c3)o2)n1 [Compound I-109],≤ 50
6,C[C@H](CO)n1cnnc1-c1cccc(-c2ncc(-c3cccc(O)c3)o2)n1 [Compound I-074],≤ 50
7,CC(C)n1cnnc1-c1cccc(-c2ncc(-c3cccc(N4CCCC4)c3)o2)n1 [Compound I-125],≤ 50
8,C[C@H](CO)n1cnnc1-c1cccc(-c2ncc(-c3c(F)cc(F)cc3F)o2)n1 [Compound I-053],≤ 50
9,"CC(C)n1cnnc1-c1cccc(-c2ncc(-c3cccc(C(=O)Nc4ccccc4)c3)o2)n1 [Compound I-006, N-Phenyl-3-(2-[6-[4-(propan-2-yl)-4H-1,2,4-triazol-3-yl]pyridin-2-yl]-1,3-oxazol-5-yl)benzamide]",50 to 500
10,C[C@H](CO)n1cnnc1-c1cccc(-c2ncc(-c3cccc(N4CCN(C)CC4)c3)o2)n1 [Compound I-116],≤ 50
11,C[C@H](CO)n1cnnc1-c1cccc(-c2ncc(-c3cccc(N(C)C)c3)o2)n1 [Compound I-059],≤ 50
12,C[C@H](CO)n1cnnc1-c1cccc(-c2ncc(-c3ccc(S(N)(=O)=O)cc3)o2)n1 [Compound I-100],≤ 50
13,CCCCCCOc1cccc(-c2cnc(-c3cccc(-c4nncn4[C@H](C)CO)n3)o2)c1 [Compound I-077],≤ 50
14,C[C@H](CO)n1cnnc1-c1cccc(-c2ncc(-c3cccc(C4CCCCC4)c3)o2)n1 [Compound I-129],≤ 50
15,C[C@H](CO)n1cnnc1-c1cccc(-c2ncc(-c3cccc(N4CCOCC4)c3)o2)n1 [Compound I-111],≤ 50

# Further lines, results first:
row,EC50 [nM],SMILES
1,≤ 50,Cc1ccc(-c2cnc(-c3cccc(-c4nncn4C(C)C)n3)o2)c(F)c1 [Compound I-041]
2,50 to 500,CC(C)c1cccc(-c2cnc(-c3cccc(-c4nncn4C(C)C)n3)o2)c1 [Compound I-034]
3,≤ 50,Cc1ccc(-c2cnc(-c3cccc(-c4nncn4C(C)C)n3)o2)cc1 [Compound I-029]
4,50 to 500,CC(C)n1cnnc1-c1cccc(-c2ncc(-c3ccc(F)cc3F)o2)n1 [Compound I-049]
5,≤ 50,"CC(C)n1cnnc1-c1cccc(-c2ncc(-c3ccccc3)o2)n1 [Compound I-002, 2-(5-Phenyl-1,3-oxazol-2-yl)-6-[4-(propan-2-yl)-4H-1,2,4-triazol-3-yl] pyridine]"
6,50 to 500,COC(=O)c1ccc(-c2cnc(-c3cccc(-c4nncn4C(C)C)n3)o2)cc1 [Compound I-093]
7,≤ 50,CSc1ccc(-c2cnc(-c3cccc(-c4nncn4C(C)C)n3)o2)cc1 [Compound I-067]
8,50 to 500,CC(C)n1cnnc1-c1cccc(-c2ncc(-c3ccc(C4CC4)cc3)o2)n1 [Compound I-039]
9,≤ 50,COCCOc1cccc(-c2cnc(-c3cccc(-c4nncn4C(C)C)n3)o2)c1 [Compound I-078]
